The test system of experiment [1] is GTPase KRas (Homo sapiens), P01116 [G12C]. As to the kind of experiment: Binding affinity to KRAS G12C mutant (unknown origin) assessed as covalent bond formation by measuring Kobs/[I] ratio.
Experiment [2] in a line: Inhibition of ERK phosphorylation in human NCI-H358 cells. The class given is cell-based.
The next experiment relates to NIH3T3. As to the kind of experiment: Antiproliferative activity against mouse NIH3T3 cells transfected with HRAS G12V mutant assessed as inhibition of cell growth incubated for 14 days by dissecting microscope based colony counting assay. Format: functional. The settings on record: NIH3T3, 336 h.
A further experiment deals with GTPase HRas (Homo sapiens, UniProt P01112). The experiment is described as follows: Inhibition of GST-tagged HRAS (1 to 166 residues) (unknown origin) assessed as inhibition of mSOS1 mediated nucleotide exchange by [35S]GTPgammaS based liquid scintillation counting method. In general terms: GTPγS is a poorly hydrolysed GTP analogue; its binding reports G protein activation.

A further experiment relates to SW480. The experiment is described as follows: Antitumor activity against human SW480 cells xenografted in athymic nude mouse assessed as inhibition of tumor growth at 80 mg/kg, po administered 5 days a week for 17 to 20 days relative to control. Format: functional. The settings on record: time 17-20 day.
Experiment [3] has as its target GTPase KRas (Homo sapiens, UniProt P01116, G12C). The experiment is described as follows: Inhibition of KRAS G12C mutant in human NCI-H358 cells incubated for 6 hrs by LC-MS/MS analysis. Format: cell-based.
The nature of experiment [4]: Inhibition of Ras GTPase activation in HEK293T cells. The class given is cell-based, Homo sapiens.
Experiment [5] in a line: Inhibition of ERK phosphorylation in human MIA PaCa-2 cells. Format: cell-based.
Experiment [6] in a line: Inhibition of SOS1/KRAS (unknown origin) protein-protein interaction. Details: species or system Homo sapiens.
Experiment [7] has as its target GTPase KRas (Homo sapiens, UniProt P01116, G12V). The experiment is described as follows: Binding affinity to GppNHp-tagged KRAS G12V mutant (unknown origin).
For another experiment, the system named is HT-1080. The experiment is described as follows: Cytotoxicity against human HT-1080 cells harboring NRAS Q61K mutant assessed as inhibition of cell growth incubated for 72 hrs by celltiter-glo luminescent cell viability assay. Format: functional, cell-based. The settings on record: HT-1080, 72 h. Background: Cellular ATP, detected with luciferase, serves as a proxy for viable cell number.

The values below come from ChEMBL document CHEMBL5241099, “Targeting mutated GTPase KRAS in tumor therapies” (Eur J Med Chem, 2021).

On to `C=CC(=O)N1CC(NC(=O)COc2ccc(Br)cc2NC(=O)c2cc(C)no2)C1`, for which the Ratio in experiment [1] worked out at 2 M⁻¹ s⁻¹.

In experiment [2], `C=CC(=O)N1CCN(c2ncnc3c2CCN(c2cc(O)cc4ccccc24)C3)CC1` came in with a half-inhibitory concentration (IC50) of 7.6 µM.

As for `Cc1ccc(NC(=S)NNc2c([N+](=O)[O-])cc(C(F)(F)F)cc2[N+](=O)[O-])cc1Cl`, the IC50 was found to be 0.5 µM with NIH3T3 and 20 µM at GTPase HRas. Besides, in the experiment with SW480, the inhibition in vivo at 80 mg/kg was determined as 40%.

Take `C=CC(=O)N1CCN(C(=O)CNc2cc(I)c(Cl)cc2O)CC1`: the IC50 against GTPase KRas [3] amounted to 100 µM.

Regarding `Cc1[nH]c2cc(Cl)cc(Cl)c2c1CCN`, the EC50 in [4] came to 15.8 µM. This lies in the double-digit micromolar range.

Turning to `C=CC(=O)N1CCN(c2nc(=O)n(-c3c(C)ccnc3C(C)C)c3nc(-c4c(O)cccc4F)c(F)cc23)[C@@H](C)C1` [SOTORASIB], in experiment [5], the midpoint of inhibition, the IC50, lay at 0.068 µM.

Turning to `COc1cc2ncnc(N[C@H](C)c3ccccc3)c2cc1OC`, the midpoint of inhibition in experiment [6], the IC50, lay at 1.6 µM.

`COc1cc2nc(C)nc(N[C@H](C)c3cc(N)cc(C(F)(F)F)c3)c2cc1O[C@H]1CCOC1` displayed an IC50 in experiment [6] of 0.005 µM.

Turning to `C=CC(=O)N1CC(N2CCN(C(=O)CNc3cc(Cl)c(Cl)cc3O)CC2)C1`, the IC50 on GTPase KRas [3] worked out at 50 µM.

For `C=CC(=O)N1CC(NC(=O)Cn2cc(C(=O)N3CCc4c(cccc4OC)C3)c3cc(Br)ccc32)C1`, the Ratio in [1] turned out to be 230 M⁻¹ s⁻¹.

In the case of `O=C(NCC1COc2ccccc2O1)c1ccco1` (stereo unspecified), at GTPase KRas [7], the Kd amounted to 235 µM.

Turning to `COc1nc(-c2cccc3c2OCCO3)ccc1Nc1ccc(CN(C)C)cc1`, the IC50 in the experiment on HT-1080 was 10 µM.

As for `O=[N+]([O-])c1cc(C(F)(F)F)cc([N+](=O)[O-])c1NNC(=S)Nc1ccc(F)cc1`, the IC50 was found to be 1.4 µM with NIH3T3 and 100 µM on GTPase HRas.

What is called IC50 is the concentration that inhibits the measured activity by half. By inhibition in vivo is commonly meant the share of the control response that was lost under treatment. For orientation: EC50 means the concentration at which the effect is half-maximal. Read a high EC50 as a need for much substance. By Kd is commonly meant the free concentration of one partner at which half of the binding sites on the other are occupied at equilibrium, for simple one-to-one binding. A high value points to a looser complex.
